US9585893B2, “Flumazenil complexes, compositions comprising same and uses thereof” (COERULEUS LTD., priority 2011, dated 2017)
Counter-ions that a name gives are not always drawn. Each block holds one compound with its values, some of them ahead of it.

Assays:
[1] = format: physicochemical
Protocol: Flumazenil chloride salt consisting of flumazenil and hydrochloride acid was prepared (FIG. 1). […] The concentration of flumazenil in that composition is higher by […] than the concentration of flumazenil in the commercial product Romazicon® (Romazicon® contains 0.01% flumazenil).

[2] = tested on: hepatic encephalopathy in patients with cirrhosis; details: intravenous infusion of 1 mg flumazenil in 20 ml saline over 3-5 minutes; cited from earlier work
[3] = adult doses; cited from earlier work

concentration of flumazenil in the composition enabled by increased solubility [1]: 0.66%
SMILES: CCOC(=O)c1ncn2c1CN(C)C(=O)c1cc(F)ccc1-2 [Flumazenil chloride salt]

SMILES: CCOC(=O)c1ncn2c1CN(C)C(=O)c1cc(F)ccc1-2 [flumazenil, ethyl 8-fluoro-5,6-dihydro-5-methyl-6-oxo-4H-imidazo[1,5-a][1,4]benzodiazepine-3-carboxylate]
effect on recovery or survival [2]: no significant effect
effect on short-term improvement of hepatic encephalopathy [2]: significant beneficial effect

SMILES: NC(=O)c1cccnc1 [nicotinamide, 3-pyridinecarboxamide]
dose considered to have toxic potential [3]: > 3 gm/day
